Assay results as given in patent US6413967B1, “Inhibition of novel calcium entry pathway in electrically non-excitable cells acting as an anti-proliferative therapy” (The University of Virginia Patents Foundation, priority 1995, dated 2002).
pIC50: −log10 of the molar value.

What was measured:
human PBMC = assay: lymphocyte proliferation, 3H-thymidine incorporation; assay type: cell-based
Experimental: Human PBMC were isolated from peripheral blood obtained from healthy donors. Cells were washed twice and were placed in triplicate wells at a concentration of 1×10^5 cells/ml in serum-free RPMI-1640 supplemented with 100 U of both penicillin and streptomycin. Drug treatments were added 15 minutes before stimulation of the cells and were present throughout the 1 hour stimulation period. Stimulation by mitogen (1 μg/ml PHA) in combination with 10 nM phorbol dibutyrate (PDB) was carried out for 1 hour at 37° C. Cells were subsequently washed 3 times with RPMI and were resuspended at a concentration of 1×10^5 cells/ml in RPMI-1640 supplemented with 5% FBS and 100 U/ml of penicillin and 100 μg/ml streptomycin. For the 48 hour proliferation phase, cells were cultured with (Ca^2+-independent proliferation) or without (Ca^2+-dependent proliferation) 10 nM PDB. 1 μCi of [^3H]-Thymidine (6.7 Ci/mmol; New England Nuclear, Boston, Mass.) was added to each well for the final 16 hours of the assay and at 48 h the cells were harvested and incorporated ^3H was counted by liquid scintillation counting.

[1] = test system: IL-2 production by Jurkat cells; assay: interleukin-2 production with CT-EV bioassay; assay type: cell-based, human
Experimental: Jurkat cells were suspended at a concentration of 2×10^6 cells/ml in serum-free RPMI-1640 containing 100 U/ml penicillin and 100 μg/ml streptomycin. Cells were treated for 15 min with the appropriate compound to be tested prior to stimulation with 1 μg/ml PHA plus 10 nM PDB (calcium-independent) or with PHA alone (calcium dependent). The cells were then incubated for 2 h at 37° C. Following the 2 h stimulation period, the cells were washed twice with RPMI-1640 supplemented with 5% FBS with 5 min incubations between washes and were resuspended at 2×10^6 cells/ml. The cell suspensions were placed in wells of 24 well plates and were incubated at 37° C. for 24 h. At the end of the incubation, the suspensions were collected, the cells were pelleted and the supernatant was stored at 4° C. for later assay for IL-2 levels. […] Standard curves were generated by addition of known amounts of recombinant human IL-2 (BioWhittaker) to allow determination of IL-2 content in each sample. Plates were then incubated at 37° C. for 48 h. To determine proliferation of CTEV cells, 1 μCi of [^3H]-Thymidine (6.7 Ci/mmol; New England Nuclear) was added to each well for the final 16 hours of the assay and at 48 h the cells were harvested and incorporated ^3H was counted by liquid scintillation counting.

[2] = test system: [Ca^2+]i in MDA-468 cells; assay: EGF receptor-stimulated Ca2+ influx in MDA-468 cells; assay type: cell-based, human; settings: effect the same post- and pre- EGF receptor stimulation
Experimental: MDA468 cells are incubated with either indo-1 or the combination of fura-red/fluo-3 for 1 hour while still adherent in the maintenance flask in DMEM plus 5% fbs and 1 μg/ml insulin. Cells are removed by gentle scraping and washed three times in buffer A containing 1% charcoal stripped fbs (Nelson et al, Br. J. Cancer (1991) 63:933). The cells are then suspended to a final concentration of 1e6/ml and used as above in the SLM. For the human breast cancer cells, Ca^2+ entry is stimulated by the addition of 25 ng/ml EGF, rather than the antibody used above.

[3] = test system: [Ca^2+]i in Jurkat T cells; assay: receptor-stimulated Ca2+ influx in Jurkat T cells (anti-CD3 mAb OKT3); assay type: cell-based, human; settings: effect the same post- and pre- T cell receptor stimulation; 10 or 30 μM drug
Experimental: Initially, all drugs are screened using Jurkat T cells incubated with indo-1/AM as outlined below. In the event that there is an effect of the drug on the maximum [Ca^2+]i reached following treatment of the cells with the anti-CD3 mAb […], the drug is evaluated for any effects on the spectral characteristics of indo-1 as outlined in Haverstick and Gray, Mol. Biol. Cell (1993) 4:173. If there is an effect of the drug on the spectral characteristics of indo-1 , the drug is further examined for spectral effects on the combination of fura-red and fluo-3. If there is no effect of the drug on the fura-red/fluo-3 combination, the drug is examined for effects on the maximum [Ca^2+]i reached following OKT3 treatment of cells incubated with 5 μM fura-red and […] as outlined below.
Jurkat cells are incubated in RPMI-1640 plus 5% fbs in the presence of the acetoxymethyl ester of either indo-1 (1 μM) or the combination of fura-red (5 μM) with fluo-3 (1 μM) for one hour at 37° C. Cells are washed three times in buffer A [[…] 4-(2-hydroxyethyl)-1-piperazine ethanesulfonic acid (HEPES), pH 7.4, 3 MM KCl, 1 mM MgCl2, 1 mM CaCl2, 140 mM NaCl, 0.1% glucose] containing 1% fbs and suspended to a final concentration of 1×10^6/ml. Cells are then placed in the 37° C. jacketed cell holder of the SLM 8000C. Antigen receptor engagement is mimicked by the addition of the anti-CD3 monoclonal antibody OKT3 (Gray et al, J. Exp. Med. (1988) 167:1963; Gray et al, J. Immunol. 142:1631). The effect of drug added prior to receptor stimulation or at the plateau phase of Ca^2+ entry is determined as follows:
Prior drug: 10 or 30 μM drug @ 30 seconds, 1 μg/ml OKT3 at 90 seconds
Post drug: 1 μg/ml OKT3 at 30 second, 10 or 30 μM drug @ 120 seconds

CC(Cc1ccc(O)c(O)c1)C(C)Cc1ccc(O)c(O)c1 (stereo not shown) [NDGA, 4,4′-(2,3-dimethyl-1,4-butanediyl)bis[1,2-benzenediol]]
pIC50 (human PBMC; Ca^2+-dependent protocol (PHA/PDB 1 h, then medium 48 h), n=6, read-out: IC50 for inhibition of proliferation): ~5.52
effect on Ca^2+-independent proliferation (human PBMC; PHA/PDB 1 h then PDB 48 h): no effect
effect on Ca^2+-dependent proliferation (human PBMC; PHA/PDB 1 h then medium alone 48 h): inhibited proliferation
effect on IL-2 secretion, Ca^2+-dependent stimulation [1]: suppressed
effect on IL-2 secretion, stimulus not initially requiring extracellular Ca^2+ [1]: little effect
MDA [CA^2+]i [2]: ↓
T cell [Ca^2+]i [3]: ↓
